From paper PMC6882465, “Towards discovery of new leishmanicidal scaffolds able to inhibit Leishmania GSK-3” (Journal of Enzyme Inhibition and Medicinal Chemistry, 2019)
Where two headings read alike, the source gives them in different places. Blank lines part the entries; values can stand above or below the compound they belong to.

Assays:
[1] = test system: L. infantum promastigotes; assay: Leishmanicidal assay on promastigotes (inhibition of MTT reduction); type: cell-based, Leishmania infantum; conditions: 72 h
Experimental: (§1) Leishmania parasites were resuspended with the corresponding drug concentration at 2 × 10^6 parasites/mL (final concentration) in their respective growth media in 96 microwell plates (200 µL/well). The parasites were allowed to growth for 72 h at 26 °C for promastigotes and 96 h at 32 °C for axenic amastigotes. Afterwards, inhibition of proliferation was measured by the inhibition of MTT reduction by the parasites. […] MTT reduction was allowed to proceed for 2 h at the respective temperature, and the resulting formazan solubilised by addition of 50 µL/well of 10% SDS. Afterwards, the plate was read at 595 nm in a BioRad Microplate-reader, model 680. Samples were made by triplicate and assays were repeated at least twice.

[2] = target: LdGSK-3 (Leishmania donovani, UniProt A6N857); assay: Inhibition of LdGSK-3 with Kinase Glo; type: biochemical; conditions: for LdGSK-3 % inhibition: Table S1, @10 µM; for % inhibition @ 10µM (initial screening on LdGSK3): Table S2; for percentage of inhibition of LdGSK-3: assayed at 10 µM
LdGSK-3, sequence (A6N857 entry or part of it): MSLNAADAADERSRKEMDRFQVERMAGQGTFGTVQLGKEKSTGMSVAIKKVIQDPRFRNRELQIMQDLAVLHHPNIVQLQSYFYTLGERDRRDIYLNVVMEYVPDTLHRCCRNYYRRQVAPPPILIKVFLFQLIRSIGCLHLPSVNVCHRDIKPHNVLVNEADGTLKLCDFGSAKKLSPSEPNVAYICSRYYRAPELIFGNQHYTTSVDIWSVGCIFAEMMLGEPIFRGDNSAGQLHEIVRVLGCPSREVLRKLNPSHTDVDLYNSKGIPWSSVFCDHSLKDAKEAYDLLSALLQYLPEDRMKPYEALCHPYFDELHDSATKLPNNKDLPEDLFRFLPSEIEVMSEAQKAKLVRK
Experimental: Assessment of inhibition of LdGSK-3 with Kinase Glo^TM
The reaction was allowed to proceed for 30 min at 30 °C, then it was incubated at room temperature for another 10 min after addition of Kinase Glo reagents (Promega, Ref. V6712). ATP consumption by LdGSK-3 was measured indirectly through end-point luminescence measurement of each well in a Varioskan Flash microplate reader (Thermo).

[3] = test system: L. pifanoi axenic amastigotes; assay: Leishmanicidal assay on axenic amastigotes (inhibition of MTT reduction); type: cell-based, Leishmania pifanoi; conditions: 96 h, read-out: L. pifanoi amast. ax EC50
Experimental: as §1

[4] = target: hGSK-3β (Homo sapiens, UniProt P49841); assay: hGSK-3β inhibition; type: biochemical
hGSK-3β, sequence (P49841 whole entry): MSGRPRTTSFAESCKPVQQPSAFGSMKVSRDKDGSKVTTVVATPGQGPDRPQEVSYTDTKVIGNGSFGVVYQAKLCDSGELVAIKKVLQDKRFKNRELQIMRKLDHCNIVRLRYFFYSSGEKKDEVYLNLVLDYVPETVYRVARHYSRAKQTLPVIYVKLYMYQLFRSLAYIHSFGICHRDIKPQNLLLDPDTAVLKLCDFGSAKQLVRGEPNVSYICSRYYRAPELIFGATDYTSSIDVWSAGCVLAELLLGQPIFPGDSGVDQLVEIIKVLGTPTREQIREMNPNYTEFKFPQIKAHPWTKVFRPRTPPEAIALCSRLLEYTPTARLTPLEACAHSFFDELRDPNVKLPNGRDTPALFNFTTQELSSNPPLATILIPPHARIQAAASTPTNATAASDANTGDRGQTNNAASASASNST

[5] = test system: peritoneal murine macrophages (PMM); assay: Cytotoxicity on peritoneal murine macrophages (MTT); type: cell-based, Balb/c mice; conditions: Mus musculus, Macrophage; Table 1; 48 h
Experimental: Peritoneal murine macrophages were obtained from 8-week-old Balb/c mice previously elicited by i.p. injection with 1 mL of 10% thioglycollate medium three days prior to extraction. Macrophages were obtained by peritoneal washing (10 mL PBS, 4 °C). After extraction, macrophages were maintained in RPMI 1640-HIFCS at 37 °C and 5% CO2.
For peritoneal macrophages, the cells were seeded in 96 microwell plates at 1 × 10^5 cells/well and incubated (37 °C, 5% CO2) with the drug for 48 h. The toxicity was evaluated by the inhibition of MTT reduction as above.

[6] = Table 2, read-out: LdGSK-3 IC50

SMILES: N#Cc1cc(-c2ccnc(Nc3cccc(CN4CCOCC4)c3)n2)ccc1NCCN [Compound 128]
- IC50 [2, 6]: 1.7 µM
- % inhibition @ 10µM (initial screening on LdGSK3) [2]: 99.46±0.78%
- percentage of inhibition of LdGSK-3 [2]: higher than 50%
- IC50 ([4]; Table 2): 1.32 ± 0.35 µM

SMILES: CN(C)Cc1cccc(Nc2nccc(-c3ccc(NCCN)c(C#N)c3)n2)c1 [Compound 119]
- IC50 [2, 6]: 0.27 µM
- % inhibition @ 10µM (initial screening on LdGSK3) [2]: 100.29±1.24%
- percentage of inhibition of LdGSK-3 [2]: higher than 50%
- IC50 ([4]; Table 2): 0.24 ± 0.04 µM

SMILES: O=c1sn(-c2cccc3ccccc23)c(=O)n1Cc1ccccc1 [Compound 2, tideglusib]
- EC50 ([1]; Leishmania infantum, Table 1): 17.6 ± 2.3 µM
- IC50 [2]: 0.32 ± 0.05 µM
- EC50 [5]: > 50 µM
- EC50 ([3]; Leishmania pifanoi, Table 1): 7.1 ± 1.8 µM

SMILES: Nc1cc(-c2ccc3ncnc(N4CCOCC4)c3c2)cnc1N [Compound 55]
- % inhibition @ 10µM (initial screening on LdGSK3) [2]: 0.55±3.00%

SMILES: CCN(CC)c1ccc(S(=O)(=O)N(CC)CC)c2nonc12 [Compound 207]
- % inhibition @ 10µM (initial screening on LdGSK3) [2]: 8.90±5.85%

SMILES: Cc1nn(-c2nc3ccccc3[nH]2)c2c1C(c1ccc(O)cc1)CC(=O)N2 (stereo not drawn) [Compound 120]
- % inhibition @ 10µM (initial screening on LdGSK3) [2]: 18.15±1.70%

SMILES: Cl.NCc1ccc2c(Cl)cc(Cl)c(O)c2n1 [Compound 121]
- % inhibition @ 10µM (initial screening on LdGSK3) [2]: 14.80±1.70%

SMILES: CC(C)COC(=O)Nc1ccc(N2CCC(CNS(=O)(=O)c3ccccc3)CC2)c(F)c1 [Compound 46]
- % inhibition @ 10µM (initial screening on LdGSK3) [2]: 4.95±4.45%

SMILES: O=S(=O)(c1cccc(CSc2nnc(-c3ccc4c(c3)OCO4)o2)c1)N1CCOCC1 [Compound 151]
- IC50 [2, 6]: 2.54 ± 0.48 µM
- % inhibition @ 10µM (initial screening on LdGSK3) [2]: 61.89±2.34%
- percentage of inhibition of LdGSK-3 [2]: higher than 50%
- IC50 ([4]; Table 2): 0.02 ± 0.01 µM

SMILES: COc1ccccc1C1CC(c2ccc(NS(C)(=O)=O)cc2)=NN1C(=O)c1cccs1 (stereo not drawn) [Compound 195]
- % inhibition @ 10µM (initial screening on LdGSK3) [2]: 16.55±4.05%

SMILES: O=C(COc1nn(-c2ccccc2)c2ncccc12)NCc1ccccc1 [Compound 180]
- % inhibition @ 10µM (initial screening on LdGSK3) [2]: 17.50±3.45%

SMILES: OCC1CCCCN1c1cc(-c2ccccn2)nc(Nc2ccccc2)n1 (stereo not drawn) [Compound 99]
- % inhibition @ 10µM (initial screening on LdGSK3) [2]: 0.60±0.60%

SMILES: Cc1cc(-c2cccc3ccccc23)nc2nc(N)nc(N)c12 [Compound 57]
- % inhibition @ 10µM (initial screening on LdGSK3) [2]: 6.10±3.15%

The next lines start with results.

- LdGSK-3 % inhibition [2]: < 20%
- IC50 ([4]; Table S1, reference not given): 7.33 ± 0.15 µM
SMILES: COc1cccc(CC(=O)Nc2nc3ccc(OC)cc3s2)c1 [Compound 24]
- EC50 ([1]; Table S1): > 50 µM
- EC50 ([3]; Table S1): > 50 µM

- LdGSK-3 % inhibition [2]: < 20%
- IC50 ([4]; Table S1, reference not given): 9.75 ± 0.26 µM
SMILES: O=C(Cc1cccc(Cl)c1)Nc1nc2ccc(C(F)(F)F)cc2s1 [Compound 23]
- EC50 ([1]; Table S1): > 50 µM
- EC50 ([3]; Table S1): > 50 µM

- LdGSK-3 % inhibition [2]: < 20%
SMILES: COc1ccc(CNC(=O)Nc2nc(C)c(C(C)=O)s2)cc1 [Compound 18]
- EC50 ([1]; Table S1): > 50 µM
- EC50 ([3]; Table S1): > 50 µM

- LdGSK-3 % inhibition [2]: < 20%
- IC50 ([4]; Table S1, reference not given): 7.04 ± 0.27 µM
SMILES: CCOC(=O)c1sc(NC(=O)CCc2cc(OC)c(OC)c(OC)c2)nc1C [Compound 22]
- EC50 ([1]; Table S1): > 50 µM
- EC50 ([3]; Table S1): > 50 µM

- IC50 [2, 6]: 9.1 µM
- % inhibition @ 10µM (initial screening on LdGSK3) [2]: 67.81±1.17%
- percentage of inhibition of LdGSK-3 [2]: higher than 50%
- IC50 ([4]; Table 2): 1.22 ± 0.43 µM
SMILES: CC(=O)Nc1ccc(-c2cnc(N)c(-c3nc4ccc(F)cc4[nH]3)c2)cc1 [Compound 187]

- IC50 [2, 6]: 0.46 ± 0.07 µM
- % inhibition @ 10µM (initial screening on LdGSK3) [2]: 90.25±1.12%
- percentage of inhibition of LdGSK-3 [2]: higher than 50%
- IC50 ([4]; Table 2): 1.4 ± 0.25 µM
SMILES: COc1ccc(Nc2nccc(N(C)c3n[nH]c4c(F)cccc34)n2)cc1S(C)(=O)=O [Compound 95]

- % inhibition @ 10µM (initial screening on LdGSK3) [2]: 9.25±0.40%
SMILES: CCOc1ccc2nc(NC(=O)c3ccc([N+](=O)[O-])s3)sc2c1 [Compound 145]

- % inhibition @ 10µM (initial screening on LdGSK3) [2]: 19.75±3.70%
SMILES: COc1ccc(NS(=O)(=O)c2cc(NC(=O)c3ccc([N+](=O)[O-])s3)ccc2OC)cc1 [Compound 131]

- % inhibition @ 10µM (initial screening on LdGSK3) [2]: -2.50±5.50%
SMILES: CCNc1cc(-c2ccccn2)nc(Nc2ccc(OC)cc2)n1 [Compound 45]

- % inhibition @ 10µM (initial screening on LdGSK3) [2]: 6.35±5.75%
SMILES: COCc1cc(Nc2ccc(Cl)cc2)nc(-c2ccccn2)n1 [Compound 27]

- % inhibition @ 10µM (initial screening on LdGSK3) [2]: -2.40±2.70%
SMILES: CC(C)(C)Nc1nc(-c2ccccn2)nc2ccccc12 [Compound 192]

- % inhibition @ 10µM (initial screening on LdGSK3) [2]: 7.95±1.65%
SMILES: Cn1c(CC(=O)NNC(=O)c2ccc3ccccc3n2)nc2ccccc21 [Compound 80]

- % inhibition @ 10µM (initial screening on LdGSK3) [2]: 18.65±3.35%
SMILES: COc1ccc(-c2csc(NC(=O)c3ccc([N+](=O)[O-])s3)n2)cc1 [Compound 201]

- % inhibition @ 10µM (initial screening on LdGSK3) [2]: 12.60±3.50%
SMILES: COc1ccc(-c2cnc(C)o2)cc1S(=O)(=O)Nc1ccc(C)cc1C [Compound 160]

- % inhibition @ 10µM (initial screening on LdGSK3) [2]: -0.45±1.10%
SMILES: NC(=O)c1cc(NC(=O)c2ccccc2COc2ccccc2)ccc1Cl [Compound 105]
